# Data taken from patent US20250222120A1, “SYNTHESIS OF NOVEL SMALL MOLECULE CARM1 DEGRADERS, COMPOUNDS FORMED THEREBY, AND PHARMACEUTICAL COMPOSITIONS CONTAINING THEM” (Wisconsin Alumni Research Foundation, priority 2024, published 2025).
# Biological target: T1, CARM1 (Homo sapiens, UniProt Q86X55)
# T1 sequence (Q86X55 1-608): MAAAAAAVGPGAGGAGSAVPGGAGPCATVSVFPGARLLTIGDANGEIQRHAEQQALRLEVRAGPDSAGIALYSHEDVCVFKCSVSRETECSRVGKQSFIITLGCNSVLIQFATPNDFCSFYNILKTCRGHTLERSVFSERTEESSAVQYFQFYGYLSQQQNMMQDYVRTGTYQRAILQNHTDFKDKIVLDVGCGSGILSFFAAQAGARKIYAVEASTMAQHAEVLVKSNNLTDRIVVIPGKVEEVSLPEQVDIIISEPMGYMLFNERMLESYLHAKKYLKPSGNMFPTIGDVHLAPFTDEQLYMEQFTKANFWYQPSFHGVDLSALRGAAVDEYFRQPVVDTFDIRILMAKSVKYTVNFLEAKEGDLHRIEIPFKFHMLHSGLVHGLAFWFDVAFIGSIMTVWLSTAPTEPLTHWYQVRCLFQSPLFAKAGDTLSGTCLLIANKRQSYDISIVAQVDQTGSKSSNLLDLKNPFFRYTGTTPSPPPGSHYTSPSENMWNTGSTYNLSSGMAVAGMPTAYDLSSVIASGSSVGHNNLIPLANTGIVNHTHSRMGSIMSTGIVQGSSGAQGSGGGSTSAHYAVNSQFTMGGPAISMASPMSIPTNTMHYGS
# Experiment: Global proteomics of MCF7 cells, CARM1 level
# Assay type: cell-based
# Parameters: we performed a global quantitative proteomic analysis of MCF7 cells using mass spectrometry; endogenous in cells; host or cells: MCF7
# Conditions: 25 nM, 4 h, versus DMSO
# Method: Sample preparation for global proteomics analysis. Sample preparation is similar to the previous report (Ma et al. “Strategy Based on Deglycosylation, Multiprotease, and Hydrophilic Interaction Chromatography for Large-Scale Profiling of Protein Methylation” Anal. Chem. 2017, 89 (23), 12909-12917). Briefly, treated MCF7 cells were harvested by washing with PBS buffer (Gibco, pH 7.4) and lysed in RIPA buffer supplemented with protease inhibitors for 20 min, then protein concentration was determined using a BCA Protein Assay Kit (Thermo Pierce, Rockford, IL) per manufacturer instructions. […] The concentrations of the peptide mixture were measured by peptide assay (Thermo Fisher Scientific). […]
# LC-MS/MS data acquisition. Samples were analyzed on an Orbitrap Fusion Lumos Tribrid mass spectrometer (Thermo Fisher Scientific) coupled to a Dionex UltiMate 3000 UPLC system. […]
# Data analysis. Protein identification and quantification by MaxQuant (version 1.5.3.8) based database searching, using the integrated Andromeda search engine with FDR <1% at peptide and protein levels. […] For label-free protein quantification (LFQ), the MaxQuant LFQ algorithm was used to quantitate the MS signals, and the proteins' intensities were represented in LFQintesnit (Schaab et al. “Analysis of High Accuracy, Quantitative Proteomics Data in the MaxQB Database” Mol. Cell. Proteomics 2012, 11 (3), M111.014068). […]
smiles,measurement,value
"CNCCN1CCC(c2cc(CN(C)C(=O)c3cccc(Oc4ccc(OCC(=O)N5CCC(CN6CCC(CN7CCN(CC(=O)N[C@H](C(=O)N8C[C@H](O)C[C@H]8C(=O)N[C@@H](C)c8ccc(-c9scnc9C)cc8)C(C)(C)C)CC7)CC6)CC5)cc4)c3)ccn2)CC1 [Compound 3b, (2S,4R)-1-((S)-3,3-dimethyl-2-(2-(4-((1-((1-(2-(4-(3-(methyl((2-(1-(2-(methylamino)ethyl)piperidin-4-yl)pyridin-4-yl)methyl)carbamoyl)phenoxy)phenoxy)acetyl)piperidin-4-yl)methyl)piperidin-4-yl)methyl)piperazin-1-yl)acetamido)butanoyl)-4-hydroxy-N—((S)-1-(4-(4-methylthiazol-5-yl)phenyl)ethyl)pyrrolidine-2-carboxamide]",CARM1 protein level in proteomics,significant downregulation
